In patent publication US8314092B2, “Substituted [(5H-pyrrolo[2,1-c][1,4]benzodiazepin-11-yl)piperazin-1-yl]-2,2-dimethylpropanoic acid compounds as dual activity H1 inverse agonists/5-HT2A antagonists” (Eli Lilly and Company, priority 2011, dated 2012) one finds ED50 and Ki data, which are given here for one compound.

What is called pKi is the negative decadic logarithm of the Ki, by convention in mol/L. Higher therefore signals a low Ki.

For one experiment, the target named is T1, 5-HT2A Receptor (Rattus norvegicus, UniProt P14842).
T1 construct: samples of the frontal cortex and cerebellum are removed; from tissue; host or cells: living rat; frontal cortex (cerebellum as null region)
T1 sequence (P14842 whole entry): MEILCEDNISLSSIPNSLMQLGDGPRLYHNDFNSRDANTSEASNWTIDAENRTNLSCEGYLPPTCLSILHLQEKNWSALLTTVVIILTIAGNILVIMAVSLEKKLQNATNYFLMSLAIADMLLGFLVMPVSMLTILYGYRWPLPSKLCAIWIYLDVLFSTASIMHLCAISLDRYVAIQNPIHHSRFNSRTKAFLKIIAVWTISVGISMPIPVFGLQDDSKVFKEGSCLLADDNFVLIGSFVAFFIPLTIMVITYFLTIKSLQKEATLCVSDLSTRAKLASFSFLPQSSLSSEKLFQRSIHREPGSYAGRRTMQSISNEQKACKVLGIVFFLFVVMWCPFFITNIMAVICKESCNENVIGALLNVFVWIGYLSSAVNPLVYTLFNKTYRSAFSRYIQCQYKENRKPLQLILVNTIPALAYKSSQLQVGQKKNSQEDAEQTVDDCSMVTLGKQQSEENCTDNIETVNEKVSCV
The experiment is described as follows: 5-HT2A receptor occupancy in vivo (MDL 100907 tracer). The note with it: oral gavage, 1 hour before tracer, read-out: 5-HT2A receptor occupancy EC50. On the procedure: Briefly, male Sprague-Dawley rats (Harlan Sprague-Dawley, Indianapolis, Ind.) weighing approximately 230-280 grams are given ad lib access to food and water until the beginning of the 3-hour experimental protocol. 1 mg/kg ketanserin (non-selective 5-HT2A antagonist) is used as a positive control to establish assay validity. Test compounds or control are administered by oral gavage in a vehicle comprised of 20% hydroxypropyl beta-cyclodextrin. MDL 100907 ((R) -(+)-α-(2,3-Dimethoxyphenyl)-1-[2-(4-fluorophenyl)ethyl]-4-piperidinemethanol), a selective 5-HT2A antagonist, is used as a tracer. […] It is at the time of tracer administration that receptor occupancy (RO) is considered to be measured. […] The level of MDL 100907 tracer is measured in each cortical and cerebellar sample. RO is calculated using the well-established ratio method which employs a region of high receptor density representative of total binding (frontal cortex) normalized by an area without or with very low levels of receptor (cerebellum). […]
MDL 100907 Analysis: Cortex and cerebellar samples are weighed and placed in conical centrifuge tubes on ice. […] Standards are prepared by adding known quantities of analyte to brain tissue samples from non-treated rats and processing as described above. […]

Another experiment deals with Adrenergic alpha2B (Homo sapiens, UniProt P18089). The experiment is described as follows: Adrenergic alpha2B binding. From the text: (§1) Further, the compounds of the invention may be tested in binding assays and functional activity assays by well known methods for other physiologically important receptors such as, but not limited to, the hERG channel, other serotonin receptors (specifically 5-HT1A, 5-HT1B, 5-HT1D, 5-HT1E, 5-HT1F receptors, lack of agonist activity at 5-HT2B receptors, 5-HT2C, 5-HT4, 5-HTS, 5-HT6, and 5-HT7 receptors), muscarinic receptors, dopaminergic receptors (specifically D1, D2, and D3), GABAA receptors, adrenergic receptors and monoamine transporters. Certain exemplified compounds are tested at these receptors and are shown to lack significant activity.
Sequence of Adrenergic alpha2B (P18089 whole entry): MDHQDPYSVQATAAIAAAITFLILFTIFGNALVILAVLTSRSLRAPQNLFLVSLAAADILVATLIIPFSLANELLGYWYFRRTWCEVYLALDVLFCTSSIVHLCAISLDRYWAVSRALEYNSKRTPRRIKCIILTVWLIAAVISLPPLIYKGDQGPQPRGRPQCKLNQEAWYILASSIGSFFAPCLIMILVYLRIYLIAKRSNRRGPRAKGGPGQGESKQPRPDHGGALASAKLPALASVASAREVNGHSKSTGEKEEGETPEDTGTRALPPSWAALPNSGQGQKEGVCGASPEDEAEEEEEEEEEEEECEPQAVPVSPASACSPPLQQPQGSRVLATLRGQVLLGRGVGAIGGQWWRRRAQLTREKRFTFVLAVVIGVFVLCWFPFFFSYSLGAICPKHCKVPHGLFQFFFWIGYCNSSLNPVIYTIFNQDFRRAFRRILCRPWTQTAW

For a further experiment, the target named is Dopamine D2 (Homo sapiens, UniProt P14416). The experiment can be described thus: Dopamine D2 binding.
Sequence of Dopamine D2 (P14416 whole entry): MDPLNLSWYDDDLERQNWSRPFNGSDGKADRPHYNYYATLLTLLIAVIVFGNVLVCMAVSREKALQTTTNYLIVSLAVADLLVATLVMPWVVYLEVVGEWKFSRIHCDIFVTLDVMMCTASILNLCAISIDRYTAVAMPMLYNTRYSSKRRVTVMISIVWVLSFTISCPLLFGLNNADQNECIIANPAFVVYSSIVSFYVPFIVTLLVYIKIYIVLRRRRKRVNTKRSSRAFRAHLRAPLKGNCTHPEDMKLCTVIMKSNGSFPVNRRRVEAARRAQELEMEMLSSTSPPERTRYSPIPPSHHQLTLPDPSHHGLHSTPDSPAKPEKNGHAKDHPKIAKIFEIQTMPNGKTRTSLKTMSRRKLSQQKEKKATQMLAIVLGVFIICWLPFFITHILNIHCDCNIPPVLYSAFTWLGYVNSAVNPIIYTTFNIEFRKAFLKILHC
Source text: as §1

SMILES strings stand for the structures. pKi: −log10 of the molar value. Where a name gives a salt, the structure may show the parent alone.

For `Cc1cc2n(c1)Cc1cc(Cl)ccc1N=C2N1CCN(CC(C)(C)C(=O)O)CC1` [Example 13, 3-[4-(7-Chloro-2-methyl-5H-pyrrolo[2,1-c][1,4]benzodiazepin-11-yl)piperazin-1-yl]-2,2-dimethylpropanoic acid dihydrochloride], the ED50 on 5-HT2A Receptor amounted to 0.27 mg/kg. The pKi at Adrenergic alpha2B is < 5.32; on Dopamine D2, 5.47.
